According to PubChem BioAssay (NCI):
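The compound was tested at five concentrations on cells cultured in 96-well plates, with a 48-hour exposure period. Definition used: TGI = concentration required for complete inhibition of growth.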

Assays:
Experiment in all cases: inhibition of tumour cell growth, NCI panel, 48 h
[1] = tested on: ACHN renal
[2] = tested on: CAKI-1 renal
[3] = tested on: MOLT-4 leukemia
[4] = tested on: SK-MEL-5 melanoma
[5] = tested on: HOP-18 NSCLC
[6] = tested on: MDA-MB-435
[7] = tested on: OVCAR-8 ovarian
[8] = tested on: NCI-H226 lung
[9] = tested on: SF-268 CNS
[10] = tested on: OVCAR-4 ovarian
[11] = tested on: TK-10 renal
[12] = tested on: A498 renal
[13] = tested on: OVCAR-3 ovarian
[14] = tested on: SR leukemia
[15] = tested on: M19-MEL melanoma
[16] = tested on: NCI-H522 lung
[17] = tested on: COLO 205 colon
[18] = tested on: LOX IMVI melanoma
[19] = tested on: DLD-1 colon
[20] = tested on: MALME-3M melanoma
[21] = tested on: RXF-631 renal
[22] = tested on: SF-539 CNS
[23] = tested on: HCT-15 colon
[24] = tested on: HCC-2998 colon
[25] = tested on: SK-MEL-28 melanoma
[26] = tested on: XF 498 CNS
[27] = tested on: BT-549 breast
[28] = tested on: NCI-H23 lung
[29] = tested on: MCF7 breast
[30] = tested on: SNB-19 CNS
[31] = tested on: A549 NSCLC
[32] = tested on: UACC-257 melanoma
[33] = tested on: U251 CNS
[34] = tested on: HOP-62 NSCLC
[35] = tested on: KM12 colon
[36] = tested on: NCI/ADR-RES ovarian
[37] = tested on: MDA-N
[38] = tested on: UO-31 renal
[39] = tested on: DMS 114 small cell lung
[40] = tested on: HS 578T breast
[41] = tested on: HT29 colon
[42] = tested on: SK-OV-3 ovarian
[43] = tested on: HOP-92 NSCLC
[44] = tested on: HL-60(TB) leukemia
[45] = tested on: 786-0 renal
[46] = tested on: PC-3 prostate
[47] = tested on: IGROV1 ovarian
[48] = tested on: RPMI-8226 leukemia
[49] = tested on: OVCAR-5 ovarian
[50] = tested on: RXF 393 renal
[51] = tested on: M14 melanoma
[52] = tested on: K-562 leukemia
[53] = tested on: SNB-78 CNS
[54] = tested on: KM20L2 colon
[55] = tested on: SF-295 CNS
[56] = tested on: EKVX NSCLC
[57] = tested on: UACC-62 melanoma
[58] = tested on: LXFL 529 NSCLC
[59] = tested on: SK-MEL-2 melanoma
[60] = tested on: SN12C renal
[61] = tested on: NCI-H460 lung
[62] = tested on: SNB-75 CNS
[63] = tested on: SW-620 colon
[64] = tested on: CCRF-CEM leukemia
[65] = tested on: DU-145 prostate
[66] = tested on: DMS 273 small cell lung

For `COc1ccc(/C=C2\CCC(CN3CCOCC3)C2=O)cc1` (centres undefined), the TGI [1] was 11.7 µM, the TGI [2] was 4.15 µM and the TGI [3] was 6.29 µM. It also gave a TGI [4] of 12.7 µM, a TGI [5] of 18.3 µM and a TGI [6] of 3.97 µM. For the same compound, the TGI [7] was 7.35 µM, the TGI [8] was 35.5 µM and the TGI [9] was 16.4 µM. For the same compound, the TGI [10] was 24.1 µM, the TGI [11] was 9.64 µM and the TGI [12] was 21.4 µM. The TGI [13] was 9.36 µM, the TGI [14] was 5.97 µM and the TGI [15] was 30.5 µM. The TGI [16] was 2.39 µM, the TGI [17] was 5.38 µM and the TGI [18] was 10.1 µM. For the same compound, the TGI [19] was 24.8 µM, the TGI [20] was 6.42 µM and the TGI [21] was 43.5 µM. It also gave a TGI [22] of 13 µM, a TGI [23] of 6.2 µM and a TGI [24] of 10.9 µM. For the same compound, the TGI [25] was 7.71 µM, the TGI [26] was 9.69 µM and the TGI [27] was 5.54 µM. The TGI [28] was 14.4 µM, the TGI [29] was 9.58 µM and the TGI [30] was 26 µM. The TGI [31] was 20.8 µM, the TGI [32] was 5.94 µM and the TGI [33] was 31.2 µM. It also gave a TGI [34] of 33.3 µM, a TGI [35] of 16.2 µM and a TGI [36] of 5.23 µM. It also gave a TGI [37] of 5.83 µM, a TGI [38] of 15.3 µM and a TGI [39] of 7.09 µM. The TGI [40] was greater than 100 µM, the TGI [41] was 5.73 µM and the TGI [42] was 30 µM. For the same compound, the TGI [43] was 6.65 µM, the TGI [44] was 11.2 µM and the TGI [45] was 3.11 µM. The TGI [46] was 11.7 µM, the TGI [47] was 11.3 µM and the TGI [48] was 3.57 µM. For the same compound, the TGI [49] was 19.5 µM, the TGI [50] was 3.12 µM and the TGI [51] was 5.26 µM. For the same compound, the TGI [52] was 6.02 µM, the TGI [53] was 27 µM and the TGI [54] was 13.5 µM. It also gave a TGI [55] of 32.1 µM, a TGI [56] of 21.1 µM and a TGI [57] of 24.5 µM. The TGI [58] was 3.04 µM, the TGI [59] was 9.66 µM and the TGI [60] was 12.3 µM. The TGI [61] was 41.3 µM, the TGI [62] was 30.5 µM and the TGI [63] was 3.86 µM. It also gave a TGI [64] greater than 21.3 µM and a TGI [65] of 4.02 µM.

`CC1OC(n2cc(Cl)c(=O)[nH]c2=O)C=C(OC(=O)c2ccccc2)C1=O` (centres undefined) gave a TGI [1] greater than 100 µM, a TGI [2] greater than 100 µM and a TGI [3] greater than 100 µM. It also gave a TGI [4] greater than 100 µM, a TGI [5] greater than 100 µM and a TGI [7] greater than 100 µM. For the same compound, the TGI [10] was greater than 100 µM, the TGI [11] was greater than 100 µM and the TGI [13] was greater than 100 µM. For the same compound, the TGI [15] was greater than 100 µM, the TGI [17] was greater than 100 µM and the TGI [18] was greater than 100 µM. For the same compound, the TGI [19] was greater than 100 µM, the TGI [20] was greater than 100 µM and the TGI [21] was greater than 100 µM. The TGI [22] was greater than 100 µM, the TGI [23] was greater than 100 µM and the TGI [25] was greater than 100 µM. It also gave a TGI [26] greater than 100 µM, a TGI [28] greater than 100 µM and a TGI [30] greater than 100 µM. For the same compound, the TGI [31] was greater than 100 µM, the TGI [32] was greater than 100 µM and the TGI [33] was greater than 100 µM. It also gave a TGI [34] greater than 100 µM, a TGI [38] greater than 100 µM and a TGI [39] greater than 100 µM. For the same compound, the TGI [41] was greater than 100 µM, the TGI [42] was greater than 100 µM and the TGI [43] was greater than 100 µM. The TGI [44] was greater than 100 µM, the TGI [45] was greater than 100 µM and the TGI [47] was greater than 100 µM. For the same compound, the TGI [48] was greater than 100 µM, the TGI [50] was greater than 100 µM and the TGI [51] was greater than 100 µM. It also gave a TGI [66] greater than 100 µM, a TGI [52] greater than 100 µM and a TGI [53] greater than 100 µM. For the same compound, the TGI [54] was greater than 100 µM, the TGI [55] was greater than 100 µM and the TGI [56] was greater than 100 µM. The TGI [57] was greater than 100 µM, the TGI [59] was greater than 100 µM and the TGI [60] was greater than 100 µM. It also gave a TGI [61] greater than 100 µM, a TGI [62] greater than 100 µM and a TGI [63] greater than 100 µM. For the same compound, the TGI [64] was greater than 100 µM.
